{
  "source": "patent US20160136160A1",
  "about": "“METHOD FOR PREVENTING AND/OR TREATING CHRONIC TRAUMATIC ENCEPHALOPATHY-II” (priority 2013, published 2016)",
  "system": "tau phosphorylation",
  "test": "Tau phosphorylation after concussive injury in the rat (immunohistology for phosphorylated tau)",
  "format": "in vivo",
  "conditions": "rat concussion model; 1 mg/kg intravenously at 30 minutes after induction of injury; assessed at 3 day time point",
  "source_text": "Note that concussive injury in the rat causes extensive tau phosphorylation (B) by 3 days after the concussive event compared to non-injured animals (A).\nHaving established that hyperphosphorylated tau accumulates perivascularly following concussive injury, we used an animal model of concussion to investigate whether concussion causes perivascular release of substance P. We developed a rodent model of concussion to replicate the concussive event (Donkin et al., 2004, 7th International Neurotrauma Symposium, pp 75-78, Medimond Publishers, Bologna, Italy) and subsequently determined whether substance P was released after such an event. There was a clear increase in brain perivascular substance P immunoreactivity after the concussive event (FIG. 2).\nHaving shown that mechanical injury causes release of substance P after concussive injury, we then investigated whether a compound of formula (I) reduces tau hyperphosphorylation after concussive injury. […] Note that concussive injury in the rat causes extensive tau phosphorylation (B) by 3 days after the concussive event compared to non-injured animals (A). […] Thus, administration of a compound of formula (I″) prevents tau hyperphosphorylation and thus prevents the development of CTE.",
  "data": [
    {"compound": "Cc1ccccc1-c1cc(N2CCN(C)CC2)ncc1C(=O)N(C)Cc1cc(C(F)(F)F)cc(C(F)(F)F)c1", "note": "[formula (I″)]", "values": [
      {"measurement": "effect on tau phosphorylation after concussive injury", "value": "almost complete inhibition of tau phosphorylation"}
    ]}
  ]
}
